What was measured:
Format in all cases: in vivo
[1] = test system: soybean (Glycine max Merr.); experiment: Test Example 1: foliar treatment, growth inhibition rate on 14th day; settings: active ingredient amount 31 g/ha, 14th day after application, visual, 0 = non-treated, 100 = complete kill
Procedure, shortened: (§1)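 Inhibition was rated visually 14 days after treatment on a 0–100% scale, where 100 is complete kill. Compounds, formulated as wettable powders or emulsifiable concentrates at set active-ingredient amounts, were diluted to 1,000 L/ha with 0.1 vol% spreader. The dilutions were sprayed post-emergence onto soybean (primary leaf), rice (0.2–2.7 leaf), wild oat (0.4–1.2) and green foxtail (0.5–3.2).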

[2] = test system: wild oat (Avena fatua L.); experiment: as above; settings: active ingredient amount 31 g/ha, 14th day after application, visual, 0 = non-treated, 100 = complete kill
Procedure, shortened: as §1

[3] = test system: italian ryegrass (Lolium multiflorum Lam.); experiment: as above; settings: active ingredient amount 31 g/ha, 14th day after application, visual, 0 = non-treated, 100 = complete kill
Procedure, shortened: (§2)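 Using a small sprayer, formulated compound in water (0.1 vol % surfactant, 1,000 L/ha) was applied to seedlings grown from seed in upland soil. Fourteen days on, growth state was observed and expressed as percent inhibition from 0 to 100.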

[4] = test system: crabgrass (Digitaria sanquinalis L.); experiment: as above; settings: active ingredient amount 31 g/ha, 14th day after application, visual, 0 = non-treated, 100 = complete kill
Procedure, shortened: as §2

[5] = test system: corn (Zea mays L.); experiment: as above; settings: active ingredient amount 31 g/ha, 14th day after application, visual, 0 = non-treated, 100 = complete kill
Procedure, shortened: as §2

[6] = test system: wheat (Triticum aestivum L.); experiment: as above; settings: active ingredient amount 31 g/ha, 14th day after application, visual, 0 = non-treated, 100 = complete kill
Procedure, shortened: as §2

[7] = test system: rice (Oryza sativa L.); experiment: as above; settings: active ingredient amount 31 g/ha, 14th day after application, visual, 0 = non-treated, 100 = complete kill
Procedure, shortened: as §1

[8] = test system: redroot pigweed (Amaranthus retroflexus L.); experiment: as above; settings: active ingredient amount 31 g/ha, 14th day after application, visual, 0 = non-treated, 100 = complete kill
Procedure, shortened: as §2

[9] = test system: green foxtail (Setaria viridis L.); experiment: as above; settings: active ingredient amount 31 g/ha, 14th day after application, visual, 0 = non-treated, 100 = complete kill
Procedure, shortened: as §1

[10] = test system: barnyardgrass (Echinochloa crus-qalli L.); experiment: as above; settings: active ingredient amount 31 g/ha, 14th day after application, visual, 0 = non-treated, 100 = complete kill
Procedure, shortened: as §2

[11] = test system: soybean (Glycine max Merr.); experiment: Test Example 2: soil application on the day after sowing, growth inhibition rate on 14th day; settings: active ingredient amount 31 g/ha, 14th day after application
Procedure, shortened: (§3)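 Growth inhibition (%) judged by eye at day 14, scale 0 = as untreated to 100 = complete kill. Compounds formulated as wettable powders or emulsifiable concentrates, diluted in 1,000 L water per ha and sprayed onto pot soil one day post-sowing at set active-ingredient rates.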

[12] = test system: velvetleaf (Abutilon theophrasti MEDIC.); experiment: as above; settings: active ingredient amount 31 g/ha, 14th day after application
Procedure, shortened: as §3

[13] = test system: corn (Zea mays L.); experiment: as above; settings: active ingredient amount 31 g/ha, 14th day after application
Procedure, shortened: as §3

[14] = test system: wheat (Triticum aestivum L.); experiment: as above; settings: active ingredient amount 31 g/ha, 14th day after application
Procedure, shortened: as §3

[15] = test system: prickly sida (Sida spinosa L.); experiment: as above; settings: active ingredient amount 31 g/ha, 14th day after application
Procedure, shortened: as §3

[16] = test system: rice (Oryza sativa L.); experiment: as above; settings: active ingredient amount 31 g/ha, 14th day after application
Procedure, shortened: as §3

[17] = test system: redroot pigweed (Amaranthus retroflexus L.); experiment: as above; settings: active ingredient amount 31 g/ha, 14th day after application
Procedure, shortened: as §3

[18] = test system: green foxtail (Setaria viridis L.); experiment: as above; settings: active ingredient amount 31 g/ha, 14th day after application
Procedure, shortened: as §3

[19] = test system: barnyardgrass (Echinochloa crus-qalli L.); experiment: as above; settings: active ingredient amount 31 g/ha, 14th day after application
Procedure, shortened: as §3

[20] = test system: crabgrass (Digitaris sanquinalis L.); experiment: as above; settings: active ingredient amount 31 g/ha, 14th day after application
Procedure, shortened: as §3

Row | SMILES | Growth inhibition rate (%) Soybean [1] [%] | Growth inhibition rate (%) Wild oat [2] [%] | Growth inhibition rate (%) Italian ryegrass [3] [%] | Growth inhibition rate (%) Crabgrass [4] [%] | Growth inhibition rate (%) Corn [5] [%] | Growth inhibition rate (%) Wheat [6] [%] | Growth inhibition rate (%) Rice [7] [%] | Growth inhibition rate (%) Redroot pigweed [8] [%] | Growth inhibition rate (%) Green foxtail [9] [%] | Growth inhibition rate (%) Barnyardgrass [10] [%] | Growth inhibition rate (%) Soybean [11] [%] | Growth inhibition rate (%) Velvetleaf [12] [%] | Growth inhibition rate (%) Corn [13] [%] | Growth inhibition rate (%) Wheat [14] [%] | Growth inhibition rate (%) Prickly sida [15] [%] | Growth inhibition rate (%) Rice [16] [%] | Growth inhibition rate (%) Redroot pigweed [17] [%] | Growth inhibition rate (%) Green foxtail [18] [%] | Growth inhibition rate (%) Barnyardgrass [19] [%] | Growth inhibition rate (%) Crabgrass [20] [%]
1 | Cc1ccc(Oc2cnc3cc(Cl)ccc3n2)cc1-c1c(OC(=O)c2ccccn2)c(C)nn(C)c1=O [Compound 3-51] | 30 | 99 | 99 | 100 | 60 | 99 | 60 | 0 | 100 | 99 | 0 | 0 | 0 | 0 | 0 | 0 | 0 | 100 | 99 | 95
2 | Cc1ccc(Oc2cnc3cc(Cl)ccc3n2)cc1-c1c(OC(=O)C(F)(F)F)c(C)nn(C)c1=O [Compound 3-52] | 20 | 20 | 90 | 95 | 35 | 10 | 70 | 0 | 100 | 100 | 0 | 0 | 0 | 0 | 0 | 0 | 0 | 100 | 99 | 95
3 | Cc1ccc(Oc2cnc3cc(Cl)ccc3n2)cc1-c1c(OC(=O)C=CCl)c(C)nn(C)c1=O [Compound 3-54] | 20 | 78 | 95 | 98 | 30 | 93 | 20 | 0 | 100 | 100 | 0 | 0 | 0 | 0 | 0 | 0 | 0 | 98 | 99 | 30
4 | COCCOC(=O)Oc1c(C)nn(C)c(=O)c1-c1cc(Oc2cnc3cc(Cl)ccc3n2)ccc1C [Compound 3-55] | 30 | 99 | 99 | 99 | 50 | 98 | 90 | 0 | 100 | 98 | 0 | 0 | 0 | 0 | 0 | 0 | 0 | 60 | 80 | 30
5 | Cc1ccc(Oc2cnc3cc(Cl)ccc3n2)cc1-c1c(OC(=O)Oc2ccc(F)cc2)c(C)nn(C)c1=O [Compound 3-57] | 25 | 99 | 95 | 99 | 25 | 95 | 0 | 0 | 100 | 100 | 30 | 0 | 40 | 0 | 0 | 0 | 0 | 95 | 90 | 30
6 | C=CCOC(=O)Oc1c(C)nn(C)c(=O)c1-c1cc(Oc2cnc3cc(Cl)ccc3n2)ccc1C [Compound 3-58] | 25 | 95 | 99 | 99 | 55 | 98 | 50 | 0 | 100 | 100 | 0 | 0 | 0 | 0 | 0 | 0 | 0 | 75 | 85 | 10
7 | Cc1ccc(Oc2cnc3cc(Cl)ccc3n2)cc1-c1c(OC(=O)OCCCl)c(C)nn(C)c1=O [Compound 3-59] | 20 | 93 | 93 | 98 | 0 | 65 | 0 | 0 | 100 | 99 | 0 | 0 | 0 | 0 | 0 | 0 | 0 | 80 | 85 | 0
8 | C#CCOC(=O)Oc1c(C)nn(C)c(=O)c1-c1cc(Oc2cnc3cc(Cl)ccc3n2)ccc1C [Compound 3-64] | 0 | 83 | 85 | 90 | 50 | 60 | 0 | 0 | 100 | 98 | 0 | 0 | 0 | 0 | 0 | 0 | 0 | 93 | 98 | 50
